≈ marks a conversion by molar mass, not a printed value. Calls of active or inactive are those of the source. The rule behind the calls is not given here.
Tests used:
Rhabditis sp. [1] = assay: Nematicidal activity against juvenile stage of Rhabditis sp. assessed as reduction of nematode development at 1 mg/mL after 72 hr by stereomicroscopic analysis (reference value: 62%); type: functional; set-up: scale not given: the % may be the effect or the level left
Heterodera schachtii [2] = assay: Nematicidal activity against juvenile stage of Heterodera schachtii assessed as inhibition of mobility after 20 hr; type: functional
Pratylenchus penetrans [3] = assay: Nematicidal activity against juvenile stage of Pratylenchus penetrans assessed as inhibition of mobility incubated for 168 hr followed by compound wash out measured after 24 hr; type: functional
Rhabditis sp. [4] = assay: Nematicidal activity against juvenile stage of Rhabditis sp. assessed as inhibition of mobility after 20 hr; type: functional, organism-based
Heterodera schachtii [5] = assay: Nematicidal activity against juvenile stage of Heterodera schachtii assessed as inhibition of mobility incubated for 168 hr followed by compound wash out measured after 24 hr; type: functional
Rhabditis sp. [6] = assay: Nematicidal activity against juvenile stage of Rhabditis sp. assessed as reduction of fecundity at 0.1 mg/mL after 72 hr by stereomicroscopic analysis relative to untreated control; type: functional, organism-based
Meloidogyne incognita [7] = assay: Nematicidal activity against juvenile stage of Meloidogyne incognita (root-knot nematode) assessed as inhibition of mobility incubated for 168 hr followed by compound wash out measured after 24 hr; type: functional
Heterodera schachtii [8] = assay: Nematicidal activity against juvenile stage of Heterodera schachtii assessed as inhibition of mobility after 168 hr; type: functional
Rhabditis sp. [9] = assay: Nematicidal activity against juvenile stage of Rhabditis sp. assessed as reduction of nematode development at 0.1 mg/mL after 72 hr by stereomicroscopic analysis (reference value: 62%); type: functional; set-up: scale not given: the % may be the effect or the level left
Rhabditis sp. [10] = assay: Nematicidal activity against juvenile stage of Rhabditis sp. assessed as reduction of nematode development at 0.01 mg/mL after 72 hr by stereomicroscopic analysis (reference value: 62%); type: functional; set-up: scale not given: the % may be the effect or the level left
Pratylenchus penetrans [11] = assay: Nematicidal activity against juvenile stage of Pratylenchus penetrans assessed as inhibition of mobility after 20 hr; type: functional
Rhabditis sp. [12] = assay: Nematicidal activity against juvenile stage of Rhabditis sp. assessed as inhibition of mobility after 168 hr; type: functional
Pratylenchus penetrans [13] = assay: Nematicidal activity against juvenile stage of Pratylenchus penetrans assessed as inhibition of mobility after 168 hr; type: functional
Meloidogyne incognita [14] = assay: Nematicidal activity against juvenile stage of Meloidogyne incognita (root-knot nematode) assessed as inhibition of mobility after 20 hr; type: functional
Meloidogyne incognita [15] = assay: Nematicidal activity against juvenile stage of Meloidogyne incognita (root-knot nematode) assessed as inhibition of mobility after 168 hr; type: functional
Rhabditis sp. [16] = assay: Nematicidal activity against juvenile stage of Rhabditis sp. assessed as reduction of fecundity at 0.01 mg/mL after 72 hr by stereomicroscopic analysis relative to untreated control; type: functional, organism-based
[17] = Stability of the compound assessed as apperance of new pyrrolizidine alkaloids at 5 mg/mL after 24 hr by thin layer chromatographic analysis under hot temperature; type: physicochemical
[18] = Stability of the compound assessed as conversion of free base to N-oxide at 5 mg/mL after 24 to 168 hr by thin layer chromatographic analysis under hot temperature; type: physicochemical
Meloidogyne incognita [19] = assay: Repellent activity against juvenile stage of Meloidogyne incognita (root-knot nematode) at 0.1 mg/mL after 40 hr by stereomicroscopic analysis (reference value: 51%); type: functional
[20] = Stability of the compound assessed as apperance of pyrroles at 5 mg/mL after 166 hr by thin layer chromatographic analysis under hot temperature; type: physicochemical
[21] = Stability of the compound assessed as apperance of new pyrrolizidine alkaloids at 5 mg/mL after 166 hr by thin layer chromatographic analysis under cold temperature; type: physicochemical
[22] = Stability of the compound assessed as apperance of pyrroles at 5 mg/mL after 24 hr by thin layer chromatographic analysis under hot temperature; type: physicochemical
[23] = tested on: Phasmarhabditis hermaphrodita; assay: Nematicidal activity against juvenile stage of Phasmarhabditis hermaphrodita of assessed as inhibition of mobility after 168 hr; type: functional
Meloidogyne incognita [24] = assay: Repellent activity against juvenile stage of Meloidogyne incognita (root-knot nematode) at 0.1 mg/mL after 20 hr by stereomicroscopic analysis (reference value: 50%); type: functional
Meloidogyne incognita [25] = assay: Repellent activity against juvenile stage of Meloidogyne incognita (root-knot nematode) at 1 mg/mL after 20 hr by stereomicroscopic analysis (reference value: 50%); type: functional
[26] = tested on: Phasmarhabditis hermaphrodita; assay: Nematicidal activity against juvenile stage of Phasmarhabditis hermaphrodita of assessed as inhibition of mobility after 20 hr; type: functional, organism-based
[27] = Stability of the compound assessed as conversion of free base to N-oxide at 5 mg/mL after 24 to 168 hr by thin layer chromatographic analysis under UV light and cold temperature; type: physicochemical
Meloidogyne incognita [28] = assay: Ovicidal activity against Meloidogyne incognita (root-knot nematode) assessed as egg hatching at 1 mg/mL after 336 hr (reference value: 54%); type: functional
[29] = Stability of the compound assessed as apperance of new pyrrolizidine alkaloids at 5 mg/mL after 24 hr by thin layer chromatographic analysis under cold temperature; type: physicochemical
[30] = Stability of the compound assessed as apperance of pyrroles at 5 mg/mL after 24 to 168 hr by thin layer chromatographic analysis under UV light and hot temperature; type: physicochemical
Meloidogyne incognita [31] = assay: Repellent activity against juvenile stage of Meloidogyne incognita (root-knot nematode) at 1 mg/mL after 40 hr by stereomicroscopic analysis (reference value: 51%); type: functional
Rhabditis sp. [32] = assay: Repellent activity against juvenile stage of Rhabditis sp. at 0.1 mg/mL after 20 hr by stereomicroscopic analysis (reference value: 48%); type: functional
[33] = Stability of the compound assessed as apperance of new pyrrolizidine alkaloids at 5 mg/mL after 166 hr by thin layer chromatographic analysis under hot temperature; type: physicochemical
Rhabditis sp. [34] = assay: Repellent activity against juvenile stage of Rhabditis sp. at 1 mg/mL after 20 hr by stereomicroscopic analysis (reference value: 48%); type: functional
[35] = Stability of the compound assessed as conversion of free base to N-oxide at 5 mg/mL after 24 to 168 hr by thin layer chromatographic analysis under UV light and hot temperature; type: physicochemical
[36] = Stability of the compound assessed as apperance of new pyrrolizidine alkaloids at 5 mg/mL after 24 to 168 hr by thin layer chromatographic analysis under UV light and hot temperature; type: physicochemical
Rhabditis sp. [37] = assay: Repellent activity against juvenile stage of Rhabditis sp. at 0.1 mg/mL after 40 hr by stereomicroscopic analysis (reference value: 50%); type: functional
Rhabditis sp. [38] = assay: Repellent activity against juvenile stage of Rhabditis sp. at 1 mg/mL after 40 hr by stereomicroscopic analysis (reference value: 50%); type: functional
[39] = Stability of the compound assessed as conversion of free base to N-oxide at 5 mg/mL after 24 to 168 hr by thin layer chromatographic analysis under cold temperature; type: physicochemical
[40] = Stability of the compound assessed as apperance of pyrroles at 5 mg/mL after 24 to 168 hr by thin layer chromatographic analysis under UV light and cold temperature; type: physicochemical
[41] = Stability of the compound assessed as apperance of new pyrrolizidine alkaloids at 5 mg/mL after 24 to 168 hr by thin layer chromatographic analysis under UV light and cold temperature; type: physicochemical
Meloidogyne incognita [42] = assay: Ovicidal activity against Meloidogyne incognita (root-knot nematode) assessed as egg hatching at 1 mg/mL after 24 hr (reference value: 3%); type: functional

CO[C@H](C)[C@](O)(C(=O)OCC1=CCN2CC[C@H](O)[C@@H]12)C(C)C [HELIOTRINE]
Activity (Rhabditis sp. [1]): 0%
MIC50 (Heterodera schachtii [2]): inactive
MIC50 (Pratylenchus penetrans [3]): 3300 mg/L (≈ 10.5 mM)
MIC50 (Rhabditis sp. [4]): inactive
MIC50 (Heterodera schachtii [5]): 1100 mg/L (≈ 3.51 mM)
Activity (Rhabditis sp. [6]): Active
MIC50 (Meloidogyne incognita [7]): 800 mg/L (≈ 2.55 mM)
MIC50 (Heterodera schachtii [8]): 2100 mg/L (≈ 6.7 mM)
Activity (Rhabditis sp. [9]): 32%
Activity (Rhabditis sp. [10]): 58%
MIC50 (Pratylenchus penetrans [11]): 49800 mg/L (≈ 159 mM)
MIC50 (Rhabditis sp. [12]): 100 mg/L (≈ 0.319 mM)
MIC50 (Pratylenchus penetrans [13]): 4800 mg/L (≈ 15.3 mM)
MIC50 (Meloidogyne incognita [14]): 57900 mg/L (≈ 185 mM)
MIC50 (Meloidogyne incognita [15]): 300 mg/L (≈ 0.957 mM)
Activity (Rhabditis sp. [16]): Active

C/C=C(/C)C(=O)O[C@H]1CCN2CC=C(COC(=O)[C@](O)([C@H](C)OC)C(C)(C)O)[C@H]12 [LASIOCARPINE]
MIC50 (Heterodera schachtii [2]): inactive
MIC50 (Heterodera schachtii [5]): 1000 mg/L (≈ 2.43 mM)
MIC50 (Meloidogyne incognita [7]): 1000 mg/L (≈ 2.43 mM)
MIC50 (Heterodera schachtii [8]): 3800 mg/L (≈ 9.23 mM)
MIC50 (Meloidogyne incognita [14]): inactive
MIC50 (Meloidogyne incognita [15]): 500 mg/L (≈ 1.22 mM)

C/C=C1/C[C@@H](C)[C@@](C)(O)C(=O)OCC2=CC[N+]3([O-])CC[C@@H](OC1=O)[C@@H]23 (stereo partly specified) [SENECIONINE N-OXIDE]
MIC50 (Heterodera schachtii [2]): 7200 mg/L (≈ 20.5 mM)
MIC50 (Heterodera schachtii [5]): inactive
MIC50 (Meloidogyne incognita [7]): inactive
MIC50 (Heterodera schachtii [8]): 3400 mg/L (≈ 9.68 mM)
MIC50 (Meloidogyne incognita [14]): inactive
MIC50 (Meloidogyne incognita [15]): 2900 mg/L (≈ 8.25 mM)

C[C@H]1C(=O)O[C@@H]2CCN3CC=C(COC(=O)[C@](C)(O)[C@]1(C)O)[C@H]23 [MONOCROTALINE]
Stability [17]: Stable
Stability [18]: Stable
Repellency (Meloidogyne incognita [19]): 52%
MIC50 (Heterodera schachtii [2]): inactive
MIC50 (Pratylenchus penetrans [3]): 5800 mg/L (≈ 17.8 mM)
MIC50 (Rhabditis sp. [4]): inactive
MIC50 (Heterodera schachtii [5]): 1700 mg/L (≈ 5.22 mM)
MIC50 (Meloidogyne incognita [7]): 400 mg/L (≈ 1.23 mM)
Stability [20]: Unstable
Stability [21]: Unstable
Stability [22]: Stable
MIC50 [23]: inactive
Repellency (Meloidogyne incognita [24]): 51%
MIC50 (Heterodera schachtii [8]): 2000 mg/L (≈ 6.15 mM)
Repellency (Meloidogyne incognita [25]): 55%
MIC50 [26]: inactive
Stability [27]: Stable
Activity (Meloidogyne incognita [28]): 29%
Stability [29]: Stable
Stability [30]: Unstable
Repellency (Meloidogyne incognita [31]): 52%
Repellency (Rhabditis sp. [32]): 45%
Stability [33]: Unstable
MIC50 (Pratylenchus penetrans [11]): 25900 mg/L (≈ 79.6 mM)
MIC50 (Rhabditis sp. [12]): 150 mg/L (≈ 0.461 mM)
Repellency (Rhabditis sp. [34]): 92%
MIC50 (Pratylenchus penetrans [13]): 1800 mg/L (≈ 5.53 mM)
Stability [35]: Stable
MIC50 (Meloidogyne incognita [14]): 31500 mg/L (≈ 96.8 mM)
Stability [36]: Unstable
Repellency (Rhabditis sp. [37]): 49%
Repellency (Rhabditis sp. [38]): 93%
Stability [39]: Stable
MIC50 (Meloidogyne incognita [15]): 300 mg/L (≈ 0.922 mM)
Stability [40]: Unstable
Stability [41]: Unstable
Activity (Meloidogyne incognita [42]): 2%

CO[C@H](C)[C@](O)(C(=O)OCC1=CC[N+]2([O-])CC[C@H](O)[C@@H]12)C(C)C (stereo partly specified) [HELIOTRINE N-OXIDE]
Activity (Rhabditis sp. [1]): 0%
MIC50 (Heterodera schachtii [2]): inactive
MIC50 (Pratylenchus penetrans [3]): inactive
MIC50 (Rhabditis sp. [4]): inactive
MIC50 (Heterodera schachtii [5]): inactive
Activity (Rhabditis sp. [6]): Active
MIC50 (Meloidogyne incognita [7]): 1700 mg/L (≈ 5.16 mM)
MIC50 (Heterodera schachtii [8]): 77400 mg/L (≈ 235 mM)
Activity (Rhabditis sp. [9]): 55%
Activity (Rhabditis sp. [10]): 68%
MIC50 (Pratylenchus penetrans [11]): inactive
MIC50 (Rhabditis sp. [12]): inactive
MIC50 (Pratylenchus penetrans [13]): inactive
MIC50 (Meloidogyne incognita [14]): 4800 mg/L (≈ 14.6 mM)
MIC50 (Meloidogyne incognita [15]): 900 mg/L (≈ 2.73 mM)

C/C=C(/C)C(=O)O[C@H]1CC[N+]2([O-])CC=C(COC(=O)[C@](O)(C(C)C)[C@@H](C)OC)[C@H]12 (stereo partly specified) [LASIOCARPINE N-OXIDE]
MIC50 (Heterodera schachtii [2]): inactive
MIC50 (Heterodera schachtii [5]): inactive
MIC50 (Meloidogyne incognita [7]): inactive
MIC50 (Heterodera schachtii [8]): inactive
MIC50 (Meloidogyne incognita [14]): inactive
MIC50 (Meloidogyne incognita [15]): 84400 mg/L (≈ 205 mM)

Reference: ChEMBL document CHEMBL3044783, “Effects of pyrrolizidine alkaloids on the performance of plant-parasitic and free-living nematodes” (Pest Manag Sci, 2009)
